Structures are written as SMILES. Some results are limits rather than exact numbers.

The target of the assay is recombinant human integrin αvβ6 (Homo sapiens (Human), UniProt P06756+P18564). The experiment in a line: Solid phase integrin αvβ6 binding assay. Conditions: TGFβ1 LAP as ligand, IC50 presented in four ranges, read-out: αvβ6 Inhibition IC50 (nM) - range. The method, then: (§1) Microplates were coated with recombinant human integrin αvβ6 (2 μg/mL) in PBS (100 μL/well 25° C., overnight). The coating solution was removed, washed with wash buffer (0.05% Tween 20; 0.5 mM MnCl2; in 1×TBS). The plate was blocked with 200 μL/well of Block Buffer (1% BSA; 5% sucrose; 0.5 mM MnCl2; in 1×TBS) at 37° C. for 2 h. Dilutions of testing compounds and recombinant TGFβ1 LAP (0.67 μg/mL) in binding buffer (0.05% BSA; 2.5% sucrose; 0.5 mM MnCl2; in 1×TBS) were added. The plate was incubated for 2 hours at 25° C., washed, and incubated for 1 hour with Biotin-Anti-hLAP. Bound antibody was detected by peroxidase-conjugated streptavidin. The IC50 values for testing compounds were calculated by a four-parameter logistic regression.
recombinant human integrin αvβ6, sequence (P06756 31-992): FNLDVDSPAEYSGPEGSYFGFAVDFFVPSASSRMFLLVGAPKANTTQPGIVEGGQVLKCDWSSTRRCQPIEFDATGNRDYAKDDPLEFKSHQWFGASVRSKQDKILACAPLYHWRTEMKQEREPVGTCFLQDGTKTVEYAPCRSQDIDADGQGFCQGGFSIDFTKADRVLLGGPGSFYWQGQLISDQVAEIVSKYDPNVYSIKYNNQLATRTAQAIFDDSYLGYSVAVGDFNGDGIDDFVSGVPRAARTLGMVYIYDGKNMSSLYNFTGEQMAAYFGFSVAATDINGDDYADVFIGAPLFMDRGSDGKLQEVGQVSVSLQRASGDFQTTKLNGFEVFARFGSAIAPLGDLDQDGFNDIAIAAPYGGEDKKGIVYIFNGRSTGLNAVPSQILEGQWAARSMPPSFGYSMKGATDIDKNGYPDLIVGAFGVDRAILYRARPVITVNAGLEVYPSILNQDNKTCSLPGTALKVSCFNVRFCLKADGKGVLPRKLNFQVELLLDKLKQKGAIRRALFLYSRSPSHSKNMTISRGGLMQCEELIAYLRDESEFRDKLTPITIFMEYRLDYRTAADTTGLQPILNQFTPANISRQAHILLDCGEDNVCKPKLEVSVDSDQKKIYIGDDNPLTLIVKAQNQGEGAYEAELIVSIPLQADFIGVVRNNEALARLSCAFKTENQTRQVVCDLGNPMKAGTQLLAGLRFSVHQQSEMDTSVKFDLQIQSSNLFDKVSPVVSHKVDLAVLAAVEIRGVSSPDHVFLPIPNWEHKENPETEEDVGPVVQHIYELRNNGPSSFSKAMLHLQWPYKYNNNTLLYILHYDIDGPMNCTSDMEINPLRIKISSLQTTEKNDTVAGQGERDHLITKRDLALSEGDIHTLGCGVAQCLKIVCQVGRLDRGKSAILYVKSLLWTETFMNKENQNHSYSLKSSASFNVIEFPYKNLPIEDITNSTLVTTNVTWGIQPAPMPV
recombinant human integrin αvβ6, sequence (P18564 22-707): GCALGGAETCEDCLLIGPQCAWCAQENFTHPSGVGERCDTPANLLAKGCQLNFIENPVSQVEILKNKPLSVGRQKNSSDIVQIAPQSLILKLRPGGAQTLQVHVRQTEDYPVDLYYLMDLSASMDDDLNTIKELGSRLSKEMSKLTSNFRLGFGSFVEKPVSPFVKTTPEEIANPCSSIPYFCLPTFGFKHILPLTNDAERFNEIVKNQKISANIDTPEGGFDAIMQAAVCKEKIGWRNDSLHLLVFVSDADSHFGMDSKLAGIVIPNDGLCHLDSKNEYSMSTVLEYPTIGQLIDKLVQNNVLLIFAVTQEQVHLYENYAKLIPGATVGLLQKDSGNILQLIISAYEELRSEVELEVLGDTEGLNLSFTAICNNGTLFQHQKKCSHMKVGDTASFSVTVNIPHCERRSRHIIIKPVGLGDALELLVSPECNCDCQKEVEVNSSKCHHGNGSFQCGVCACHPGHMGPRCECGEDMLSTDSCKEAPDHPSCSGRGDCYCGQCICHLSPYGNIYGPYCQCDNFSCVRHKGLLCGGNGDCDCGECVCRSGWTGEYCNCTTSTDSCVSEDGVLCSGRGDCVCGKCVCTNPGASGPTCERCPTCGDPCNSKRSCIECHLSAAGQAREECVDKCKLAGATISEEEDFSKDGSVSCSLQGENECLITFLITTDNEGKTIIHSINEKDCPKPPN
The compounds tested were compound samples prepared according to procedures described in the Synthetic Examples section, with the stereochemical purity as indicated in the Examples.
as §1, with “A third series of exemplary compounds was selected for testing in the solid phase integrin αvβ6 binding assay. The compounds tested were compound samples prepared according to procedures described in the Synthetic Examples section, with the stereochemical purity as indicated in the Examples. As in Example B1, microplates” for “Microplates”
What is called IC50 is the concentration at which inhibition is half-maximal. For `O=C(O)[C@H](CCN(CCCCc1ccc2c(n1)NCCC2)CCC(F)F)Nc1ncc(C2CC2)cn1` [Compound 135, (S)-2-((5-cyclopropylpyrimidin-2-yl)amino)-4-((3,3-difluoropropyl) (4-(5,6,7,8-tetrahydro-1,8-naphthyridin-2-yl)butyl)amino) butanoic acid], the IC50 is 50 to 250 nM.
Under `COC[C@@H](F)CN(CCCCc1ccc2c(n1)NCCC2)CC[C@H](Nc1ccncn1)C(=O)O` [Compound 127, (S)-4-(((S)-2-fluoro-3-methoxypropyl) (4-(5,6,7,8-tetrahydro-1,8-naphthyridin-2-yl)butyl)amino)-2-(pyrimidin-4-ylamino) butanoic acid] stands 250 to 1000 nM; under `O=C(O)[C@H](CCN(CCCCc1ccc2c(n1)NCCC2)CCC(F)F)Nc1ncc(Br)cn1` [Compound 131, (S)-2-((5-bromopyrimidin-2-yl)amino)-4-((3,3-difluoropropyl) (4-(5,6,7,8-tetrahydro-1,8-naphthyridin-2-yl)butyl)amino) butanoic acid], 50 to 250 nM.
Under `COC[C@@H](F)CN(CCCCc1ccc2c(n1)NCCC2)CC[C@H](Nc1ncc(C#N)cn1)C(=O)O` [Compound 84, (S)-2-((5-cyanopyrimidin-2-yl)amino)-4-(((S)-2-fluoro-3-methoxypropyl) (4-(5,6,7,8-tetrahydro-1,8-naphthyridin-2-yl)butyl)amino) butanoic acid] stands 250 to 1000 nM.
Take `Cn1ncc2c(N[C@@H](CCN(CCCCc3ccc4c(n3)NCCC4)CCS(C)(=O)=O)C(=O)O)ncnc21` [Compound 101, (S)-2-((1-methyl-1H-pyrazolo[3,4-d]pyrimidin-4-yl)amino)-4-((2-(methylsulfonyl)ethyl) (4-(5,6,7,8-tetrahydro-1,8-naphthyridin-2-yl)butyl)amino) butanoic acid]: the IC50 was in the range of 50 to 250 nM.
For the molecule `O=C(O)[C@H](CCN(CCCCc1ccc2c(n1)NCCC2)C1CC1)Nc1ccncn1` [Compound 2, (S)-4-(cyclopropyl(4-(5,6,7,8-tetrahydro-1,8-naphthyridin-2-yl)butyl)amino)-2-(pyrimidin-4-ylamino) butanoic acid], the IC50 was in the range of 250 to 1000 nM.
`CO[C@H](C)CN(CCCCc1ccc2c(n1)NCCC2)CC[C@H](Nc1ncncc1-c1ccccc1)C(=O)O` [Compound 81, (S)-4-(((R)-2-methoxypropyl) (4-(5,6,7,8-tetrahydro-1,8-naphthyridin-2-yl)butyl)amino)-2-((5-phenylpyrimidin-4-yl)amino) butanoic acid]: the half-inhibitory concentration (IC50) is less than 50 nM.

The values are drawn from US11560376B2, “Amino acid compounds and methods of use” (Pliant Therapeutics, Inc., priority 2018, dated 2023).
